Results reported in patent US20250171420A1 (Monte Rosa Therapeutics, Inc., priority 2022, published 2025).

Tests used:
CK1α = molecular target: T1, CK1α (Homo sapiens, UniProt P48729); test: CK1α NanoBit Assay (HiBiT-tagged CSNK1A1, HEK293 clonal lines); assay type: cell-based; details: HEK293 HiBiT-CSNK1A1/LgBiT cells, 24 h incubation
T1 construct: HEK293 clonal lines with CRISPR KI HiBiT tag on CSNK1A1
How it was run: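 HEK293 clones carrying a CRISPR knock-in HiBiT tag on CSNK1A1 and stably expressing LgBiT are treated with compound for 24 hours at 37° C, 5% CO2, then read by luminescence. Response is normalized as 100*(S−N)/(P−N) against plate negative and positive controls, and DC50 values are derived.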

CRBN/DDB1 = CRBN/DDB1 (Homo sapiens, UniProt Q96SW2); test: HTRF binding assay (displacement of Cy5-thalidomide probe from CRBN/DDB1); details: CRBN/DDB1 2.5 nM, Cy5-Thalidomide 100 nM, 30 min; geometric mean; read-out: HTRF_Thali_Disp_DR_geo_IC50
Chain of CRBN/DDB1 (Q96SW2 whole entry, species assumed): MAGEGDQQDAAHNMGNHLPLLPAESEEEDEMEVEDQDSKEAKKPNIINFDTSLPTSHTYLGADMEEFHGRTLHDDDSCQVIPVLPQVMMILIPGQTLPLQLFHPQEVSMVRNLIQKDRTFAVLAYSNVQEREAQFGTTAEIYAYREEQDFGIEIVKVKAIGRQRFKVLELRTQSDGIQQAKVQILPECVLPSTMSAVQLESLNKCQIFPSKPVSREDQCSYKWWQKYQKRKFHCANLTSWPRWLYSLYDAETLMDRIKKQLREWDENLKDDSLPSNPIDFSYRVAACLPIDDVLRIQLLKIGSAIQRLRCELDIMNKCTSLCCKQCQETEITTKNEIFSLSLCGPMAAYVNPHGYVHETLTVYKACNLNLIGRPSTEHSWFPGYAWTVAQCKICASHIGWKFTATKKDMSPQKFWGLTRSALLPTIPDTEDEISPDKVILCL
Chain of CRBN/DDB1 (Q16531 whole entry partner, species assumed): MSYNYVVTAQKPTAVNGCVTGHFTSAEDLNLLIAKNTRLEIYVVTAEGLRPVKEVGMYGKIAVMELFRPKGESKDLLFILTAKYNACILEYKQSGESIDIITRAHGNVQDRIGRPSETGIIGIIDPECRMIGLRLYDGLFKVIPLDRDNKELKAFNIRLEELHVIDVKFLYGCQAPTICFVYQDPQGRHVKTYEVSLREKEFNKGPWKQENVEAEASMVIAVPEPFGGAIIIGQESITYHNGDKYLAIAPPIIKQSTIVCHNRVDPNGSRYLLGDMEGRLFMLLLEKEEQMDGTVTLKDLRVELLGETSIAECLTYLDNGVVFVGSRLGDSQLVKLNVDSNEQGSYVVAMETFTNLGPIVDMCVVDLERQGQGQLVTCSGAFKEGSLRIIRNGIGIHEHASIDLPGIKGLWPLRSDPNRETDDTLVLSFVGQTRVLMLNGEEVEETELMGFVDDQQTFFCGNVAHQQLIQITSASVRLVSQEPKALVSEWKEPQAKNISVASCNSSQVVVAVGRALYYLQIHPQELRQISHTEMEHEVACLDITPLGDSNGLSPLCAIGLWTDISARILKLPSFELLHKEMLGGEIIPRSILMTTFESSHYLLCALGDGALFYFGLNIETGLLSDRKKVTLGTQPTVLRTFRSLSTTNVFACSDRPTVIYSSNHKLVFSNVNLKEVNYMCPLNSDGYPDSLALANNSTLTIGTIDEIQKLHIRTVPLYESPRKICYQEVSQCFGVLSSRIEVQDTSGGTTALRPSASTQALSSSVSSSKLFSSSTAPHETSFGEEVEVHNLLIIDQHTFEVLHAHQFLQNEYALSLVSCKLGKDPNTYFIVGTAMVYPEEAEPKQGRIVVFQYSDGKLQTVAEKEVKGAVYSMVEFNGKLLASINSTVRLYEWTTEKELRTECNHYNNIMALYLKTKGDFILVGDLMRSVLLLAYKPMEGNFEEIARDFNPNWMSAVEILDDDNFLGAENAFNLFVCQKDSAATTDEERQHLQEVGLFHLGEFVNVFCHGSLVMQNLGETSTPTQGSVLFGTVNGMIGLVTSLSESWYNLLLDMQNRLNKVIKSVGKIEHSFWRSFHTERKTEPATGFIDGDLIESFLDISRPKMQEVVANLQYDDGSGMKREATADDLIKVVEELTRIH
How it was run: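 HTRF displacement of Cy5-thalidomide (100 nM) from His-tagged CRBN/DDB1 (2.5 nM) with anti-His Tb cryptate in 20 mM HEPES, 20 mM NaCl, 0.2 mM TCEP, 0.2 mM EDTA, 0.005% Tween20. 10-point 1:3 series, 30 min ambient. 665/620 nm ratio fitted 4-parameter for IC50; Ki by Cheng-Prusoff from geometric-mean IC50.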

CW2 cell line = test: Growth inhibition, CyQUANT Direct Cell Proliferation Assay, CW2; assay type: cell-based; details: Homo sapiens, CW-2; CW2, 120 to 168 hours; read-out: CW2 GI50
How it was run: (§1)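 Cells seeded 300 to 1,800 per well, day-0 CyQUANT Direct read after overnight attachment; 9-point 3-fold dilutions from 30 μM top concentration, 120 to 168 h exposure, 0.3% DMSO control. Fluorescence Ex/Em 480/520 nm; growth inhibition normalised to day-0 and untreated day-N signals, GI50 at 50% of untreated control.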

LS174T cell line = test: Growth inhibition, CyQUANT Direct Cell Proliferation Assay, LS174T; assay type: cell-based; details: Homo sapiens, 120 to 168 hours, read-out: LS174T GI50
How it was run: as §1

T1 sequence (P48729 whole entry): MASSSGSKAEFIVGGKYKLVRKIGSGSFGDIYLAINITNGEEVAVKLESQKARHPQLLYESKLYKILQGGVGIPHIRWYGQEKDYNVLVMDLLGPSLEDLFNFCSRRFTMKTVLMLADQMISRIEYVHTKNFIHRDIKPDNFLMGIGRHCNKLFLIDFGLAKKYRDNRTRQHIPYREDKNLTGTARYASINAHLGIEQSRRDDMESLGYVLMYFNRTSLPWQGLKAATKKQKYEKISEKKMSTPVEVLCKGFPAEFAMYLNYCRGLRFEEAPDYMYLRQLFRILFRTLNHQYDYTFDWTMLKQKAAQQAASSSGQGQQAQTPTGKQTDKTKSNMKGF
T1 sequence (Q96SW2 whole entry, further chain): as the sequence (Q96SW2 whole entry, species assumed) above
T1 sequence (Q16531 2-1140 partner limits assumed): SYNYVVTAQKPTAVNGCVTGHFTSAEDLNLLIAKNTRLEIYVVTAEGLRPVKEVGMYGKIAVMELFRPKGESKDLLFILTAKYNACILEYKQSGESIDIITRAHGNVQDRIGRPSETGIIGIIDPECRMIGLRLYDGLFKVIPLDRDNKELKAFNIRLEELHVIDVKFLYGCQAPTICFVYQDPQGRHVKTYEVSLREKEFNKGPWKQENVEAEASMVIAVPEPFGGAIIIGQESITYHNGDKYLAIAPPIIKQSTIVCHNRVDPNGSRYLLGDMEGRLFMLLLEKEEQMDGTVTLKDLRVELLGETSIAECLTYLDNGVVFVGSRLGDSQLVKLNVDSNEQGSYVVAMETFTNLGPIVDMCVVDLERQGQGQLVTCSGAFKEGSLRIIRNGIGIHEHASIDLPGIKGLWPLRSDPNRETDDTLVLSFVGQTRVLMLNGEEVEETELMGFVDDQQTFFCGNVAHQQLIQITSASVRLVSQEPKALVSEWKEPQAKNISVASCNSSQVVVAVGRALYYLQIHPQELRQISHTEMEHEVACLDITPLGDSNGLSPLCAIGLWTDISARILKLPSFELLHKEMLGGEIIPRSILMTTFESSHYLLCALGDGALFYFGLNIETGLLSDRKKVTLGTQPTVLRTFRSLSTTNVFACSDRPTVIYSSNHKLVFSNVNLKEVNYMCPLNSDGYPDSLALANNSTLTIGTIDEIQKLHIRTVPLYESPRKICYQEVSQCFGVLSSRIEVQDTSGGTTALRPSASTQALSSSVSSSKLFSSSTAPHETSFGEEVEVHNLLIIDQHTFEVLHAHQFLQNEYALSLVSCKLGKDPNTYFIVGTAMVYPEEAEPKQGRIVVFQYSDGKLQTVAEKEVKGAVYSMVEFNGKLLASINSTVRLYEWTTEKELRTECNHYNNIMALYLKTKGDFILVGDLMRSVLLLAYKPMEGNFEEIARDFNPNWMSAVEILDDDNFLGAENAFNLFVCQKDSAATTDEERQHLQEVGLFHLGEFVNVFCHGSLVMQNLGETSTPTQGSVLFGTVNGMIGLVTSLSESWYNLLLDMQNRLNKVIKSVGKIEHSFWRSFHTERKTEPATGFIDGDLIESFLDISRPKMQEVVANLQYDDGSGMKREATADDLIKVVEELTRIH

In the case of `C[C@@H]1Cc2ccccc2N1C(=O)Nc1ccc2c(c1)CN(C1CCC(=O)NC1=O)C2=O` (stereo partly drawn) [Compound 102, (2R)—N-(2-(2,6-dioxopiperidin-3-yl)-1-oxoisoindolin-5-yl)-2-methylindoline-1-carboxamide], the DC50 (CK1α) is reported as less than 0.1 µM, the IC50 (CRBN/DDB1) is reported as 100 to 1000 nM and the GI50 (CW2 cell line) is reported as less than 100 nM. The GI50 (LS174T cell line) was 100 to 1000 nM.
